# Test results from US6355799B1, “Substituted benzene compounds, process for their preparation, and herbicidal and defoliant compositions containing them” (ISK Americas Incorporated, priority 1997, dated 2002).
# How the values were obtained:
# Format in all cases: in vivo
# [1] = test system: upland rice (Oryza sp., var. Tebonnet, RICE); test: Post-emerge test, crop safety; conditions: post-emerge, 14 days after application, rating scale 0-100
# Method in brief: (§1)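 Applied at 15–1000 g ai/ha from acetone in 187 l/ha spray volume. Post-emergence applications included 0.25% v/v non-ionic surfactant and reached plants sown 8–21 days before. Pre-emergence applications were incorporated by surface watering. Efficacy or crop damage was rated on a 0–100 scale after 14 days.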
# [2] = test system: field corn (Zea mays L., var. Dekalb 535, CORN); test: Post-emerge test, crop safety; conditions: post-emerge, 14 days after application, rating scale 0-100
# Method in brief: as §1
# [3] = test system: barnyardgrass (Echinochloa crus-galli, ECHCG); test: Pre-emerge test, greenhouse herbicide activity screening; conditions: rated 14 days after application, 0 = no damage, 100 = complete death
# Method in brief: as §1
# [4] = test system: sicklepod (Cassia obtusifolia, CASOB); test: as above; conditions: rated 14 days after application, 0 = no damage, 100 = complete death
# Method in brief: as §1
# [5] = test system: lambsquarters (Chenopodium album, CHEAL); test: as above; conditions: rated 14 days after application, 0 = no damage, 100 = complete death
# Method in brief: as §1
# [6] = test system: common ragweed (Ambrosia artemisizfolia L., AMBEL); test: as above; conditions: rated 14 days after application, 0 = no damage, 100 = complete death
# Method in brief: as §1
# [7] = test system: large crabgrass (Digitaria sanguinalis, DIGSA); test: as above; conditions: rated 14 days after application, 0 = no damage, 100 = complete death
# Method in brief: as §1
# [8] = test system: green foxtail (Setaria viridis, SETVI); test: as above; conditions: rated 14 days after application, 0 = no damage, 100 = complete death
# Method in brief: as §1
# [9] = test system: ivyleaf morningglory (Ipomoea hederacea, IPOHE); test: as above; conditions: rated 14 days after application, 0 = no damage, 100 = complete death
# Method in brief: as §1
# [10] = test system: johnsongrass (Sorghum halepense, SORHA); test: as above; conditions: rated 14 days after application, 0 = no damage, 100 = complete death
# Method in brief: as §1
# [11] = test system: velvetleaf (Abutilon theophrasti, ABUTH); test: as above; conditions: rated 14 days after application, 0 = no damage, 100 = complete death
# Method in brief: as §1
# [12] = test system: barnyardgrass (Echinochloa crus-galli, ECHCG); test: Post-emerge test, greenhouse herbicide activity screening; conditions: post-emerge, 14 days after application, rating scale 0-100
# Method in brief: as §1
# [13] = test system: sicklepod (Cassia obtusifolia, CASOB); test: as above; conditions: post-emerge, 14 days after application, rating scale 0-100
# Method in brief: as §1
# [14] = test system: lambsquarters (Chenopodium album, CHEAL); test: as above; conditions: post-emerge, 14 days after application, rating scale 0-100
# Method in brief: as §1
# [15] = test system: common ragweed (Ambrosia artemisizfolia L., AMBEL); test: as above; conditions: post-emerge, 14 days after application, rating scale 0-100
# Method in brief: as §1
# [16] = test system: large crabgrass (Digitaria sanguinalis, DIGSA); test: as above; conditions: post-emerge, 14 days after application, rating scale 0-100
# Method in brief: as §1
# [17] = test system: green foxtail (Setaria viridis, SETVI); test: as above; conditions: post-emerge, 14 days after application, rating scale 0-100
# Method in brief: as §1
# [18] = test system: redroot pigweed (Amaranthus retroflexus, AMARE); test: as above; conditions: post-emerge, 14 days after application, rating scale 0-100
# Method in brief: as §1
# [19] = test system: ivyleaf morningglory (Ipomoea hederacea, IPOHE); test: as above; conditions: post-emerge, 14 days after application, rating scale 0-100
# Method in brief: as §1
# [20] = test system: johnsongrass (Sorghum halepense, SORHA); test: as above; conditions: post-emerge, 14 days after application, rating scale 0-100
# Method in brief: as §1
# [21] = test system: velvetleaf (Abutilon theophrasti, ABUTH); test: as above; conditions: post-emerge, 14 days after application, rating scale 0-100
# Method in brief: as §1
# [22] = test system: upland rice (Oryza sp., var. Tebonnet, RICE); test: Pre-emerge test, crop safety; conditions: rated 14 days after application, 0 = no damage, 100 = complete death
# Method in brief: (§2)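 Compounds in acetone were track-sprayed at 187 l/ha, 15–1000 g ai/ha, onto sandy loam pots. Pre-emerge seeds were sown one day before spraying, with surface watering afterwards. Post-emerge plants were at the 2–3 leaf stage and sprayed with 0.25% v/v non-ionic surfactant. Injury was rated 0–100 at 14 days.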
# [23] = test system: field corn (Zea mays L., var. Dekalb 535, CORN); test: Pre-emerge test, crop safety; conditions: rated 14 days after application, 0 = no damage, 100 = complete death
# Method in brief: as §2
# [24] = test system: redroot pigweed (Amaranthus retroflexus, AMARE); test: Pre-emerge test, greenhouse herbicide activity screening; conditions: rated 14 days after application, 0 = no damage, 100 = complete death
# Method in brief: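 Visual ratings on a 0-100 scale (0 no damage, 100 all plants dead) were taken at 14 days after treatment. Rates of 15-1000 g ai/ha in acetone, 187 l/ha, were sprayed onto soil one day after planting (pre-emerge) or onto 2-3 leaf plants with 0.25% v/v surfactant (post-emerge).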
smiles,measurement,setting,value
COc1c(Cl)cc(F)c(-n2c(=O)cc(C(F)(F)F)n(C)c2=O)c1NC(=O)c1cc([N+](=O)[O-])cc([N+](=O)[O-])c1 [2-70],phytotoxicity rating RICE,[1]; 63 g ai/ha,0
same,phytotoxicity rating RICE,[1]; 250 g ai/ha,0
same,phytotoxicity rating CORN,[2]; 63 g ai/ha,0
same,phytotoxicity rating CORN,[2]; 250 g ai/ha,0
same,"Pre-emerge Herbicidal Activity, phytotoxicity rating (0-100), ECHCG",[3]; 63 g ai/ha,0
same,"Pre-emerge Herbicidal Activity, phytotoxicity rating (0-100), ECHCG",[3]; 250 g ai/ha,0
same,"Pre-emerge Herbicidal Activity, phytotoxicity rating (0-100), CASOB",[4]; 63 g ai/ha,0
same,"Pre-emerge Herbicidal Activity, phytotoxicity rating (0-100), CASOB",[4]; 250 g ai/ha,40
same,"Pre-emerge Herbicidal Activity, phytotoxicity rating (0-100), CHEAL",[5]; 63 g ai/ha,80
same,"Pre-emerge Herbicidal Activity, phytotoxicity rating (0-100), CHEAL",[5]; 250 g ai/ha,100
same,"Pre-emerge Herbicidal Activity, phytotoxicity rating (0-100), AMBEL",[6]; 63 g ai/ha,0
same,"Pre-emerge Herbicidal Activity, phytotoxicity rating (0-100), AMBEL",[6]; 250 g ai/ha,30
same,"Pre-emerge Herbicidal Activity, phytotoxicity rating (0-100), DIGSA",[7]; 63 g ai/ha,0
same,"Pre-emerge Herbicidal Activity, phytotoxicity rating (0-100), DIGSA",[7]; 250 g ai/ha,20
same,"Pre-emerge Herbicidal Activity, phytotoxicity rating (0-100), SETVI",[8]; 63 g ai/ha,0
same,"Pre-emerge Herbicidal Activity, phytotoxicity rating (0-100), SETVI",[8]; 250 g ai/ha,60
same,"Pre-emerge Herbicidal Activity, phytotoxicity rating (0-100), IPOHE",[9]; 63 g ai/ha,0
same,"Pre-emerge Herbicidal Activity, phytotoxicity rating (0-100), IPOHE",[9]; 250 g ai/ha,60
same,"Pre-emerge Herbicidal Activity, phytotoxicity rating (0-100), SORHA",[10]; 63 g ai/ha,0
same,"Pre-emerge Herbicidal Activity, phytotoxicity rating (0-100), SORHA",[10]; 250 g ai/ha,0
same,"Pre-emerge Herbicidal Activity, phytotoxicity rating (0-100), ABUTH",[11]; 63 g ai/ha,100
same,"Pre-emerge Herbicidal Activity, phytotoxicity rating (0-100), ABUTH",[11]; 250 g ai/ha,90
same,phytotoxicity rating ECHCG,[12]; 63 g ai/ha,0
same,phytotoxicity rating ECHCG,[12]; 250 g ai/ha,0
same,phytotoxicity rating CASOB,[13]; 63 g ai/ha,10
same,phytotoxicity rating CASOB,[13]; 250 g ai/ha,20
same,phytotoxicity rating CHEAL,[14]; 63 g ai/ha,50
same,phytotoxicity rating CHEAL,[14]; 250 g ai/ha,70
same,phytotoxicity rating AMBEL,[15]; 63 g ai/ha,30
same,phytotoxicity rating AMBEL,[15]; 250 g ai/ha,30
same,phytotoxicity rating DIGSA,[16]; 63 g ai/ha,0
same,phytotoxicity rating DIGSA,[16]; 250 g ai/ha,0
same,phytotoxicity rating SETVI,[17]; 63 g ai/ha,20
same,phytotoxicity rating SETVI,[17]; 250 g ai/ha,0
same,phytotoxicity rating AMARE,[18]; 63 g ai/ha,70
same,phytotoxicity rating AMARE,[18]; 250 g ai/ha,70
same,phytotoxicity rating IPOHE,[19]; 63 g ai/ha,60
same,phytotoxicity rating IPOHE,[19]; 250 g ai/ha,60
same,phytotoxicity rating SORHA,[20]; 63 g ai/ha,0
same,phytotoxicity rating SORHA,[20]; 250 g ai/ha,0
same,phytotoxicity rating ABUTH,[21]; 63 g ai/ha,100
same,phytotoxicity rating ABUTH,[21]; 250 g ai/ha,100
same,"Pre-emerge phytotoxicity rating (0-100), crop damage, RICE",[22]; 63 g ai/ha,0
same,"Pre-emerge phytotoxicity rating (0-100), crop damage, RICE",[22]; 250 g ai/ha,10
same,"Pre-emerge phytotoxicity rating (0-100), crop damage, CORN",[23]; 63 g ai/ha,0
same,"Pre-emerge phytotoxicity rating (0-100), crop damage, CORN",[23]; 250 g ai/ha,0
same,"Pre-emerge Herbicidal Activity, phytotoxicity rating (0-100), AMARE",[24]; 63 g ai/ha,70
same,"Pre-emerge Herbicidal Activity, phytotoxicity rating (0-100), AMARE",[24]; 250 g ai/ha,100
COc1c(Cl)cc(F)c(-n2c(=O)cc(C(F)(F)F)n(C)c2=O)c1N(C(=O)c1ccc([N+](=O)[O-])cc1)C(=O)c1ccc([N+](=O)[O-])cc1 [2-69],phytotoxicity rating RICE,[1]; 63 g ai/ha,0
same,phytotoxicity rating RICE,[1]; 250 g ai/ha,0
same,phytotoxicity rating CORN,[2]; 63 g ai/ha,0
same,phytotoxicity rating CORN,[2]; 250 g ai/ha,0
same,"Pre-emerge Herbicidal Activity, phytotoxicity rating (0-100), ECHCG",[3]; 63 g ai/ha,0
same,"Pre-emerge Herbicidal Activity, phytotoxicity rating (0-100), ECHCG",[3]; 250 g ai/ha,10
same,"Pre-emerge Herbicidal Activity, phytotoxicity rating (0-100), CASOB",[4]; 63 g ai/ha,0
same,"Pre-emerge Herbicidal Activity, phytotoxicity rating (0-100), CASOB",[4]; 250 g ai/ha,80
same,"Pre-emerge Herbicidal Activity, phytotoxicity rating (0-100), CHEAL",[5]; 63 g ai/ha,100
same,"Pre-emerge Herbicidal Activity, phytotoxicity rating (0-100), CHEAL",[5]; 250 g ai/ha,100
same,"Pre-emerge Herbicidal Activity, phytotoxicity rating (0-100), AMBEL",[6]; 63 g ai/ha,50
same,"Pre-emerge Herbicidal Activity, phytotoxicity rating (0-100), AMBEL",[6]; 250 g ai/ha,60
same,"Pre-emerge Herbicidal Activity, phytotoxicity rating (0-100), DIGSA",[7]; 63 g ai/ha,20
same,"Pre-emerge Herbicidal Activity, phytotoxicity rating (0-100), DIGSA",[7]; 250 g ai/ha,90
same,"Pre-emerge Herbicidal Activity, phytotoxicity rating (0-100), SETVI",[8]; 63 g ai/ha,70
same,"Pre-emerge Herbicidal Activity, phytotoxicity rating (0-100), SETVI",[8]; 250 g ai/ha,95
same,"Pre-emerge Herbicidal Activity, phytotoxicity rating (0-100), IPOHE",[9]; 63 g ai/ha,0
same,"Pre-emerge Herbicidal Activity, phytotoxicity rating (0-100), IPOHE",[9]; 250 g ai/ha,40
same,"Pre-emerge Herbicidal Activity, phytotoxicity rating (0-100), SORHA",[10]; 63 g ai/ha,0
same,"Pre-emerge Herbicidal Activity, phytotoxicity rating (0-100), SORHA",[10]; 250 g ai/ha,30
same,"Pre-emerge Herbicidal Activity, phytotoxicity rating (0-100), ABUTH",[11]; 63 g ai/ha,100
same,"Pre-emerge Herbicidal Activity, phytotoxicity rating (0-100), ABUTH",[11]; 250 g ai/ha,100
same,phytotoxicity rating ECHCG,[12]; 63 g ai/ha,0
same,phytotoxicity rating ECHCG,[12]; 250 g ai/ha,0
same,phytotoxicity rating CASOB,[13]; 63 g ai/ha,10
same,phytotoxicity rating CASOB,[13]; 250 g ai/ha,30
same,phytotoxicity rating CHEAL,[14]; 63 g ai/ha,50
same,phytotoxicity rating CHEAL,[14]; 250 g ai/ha,60
same,phytotoxicity rating AMBEL,[15]; 63 g ai/ha,40
same,phytotoxicity rating AMBEL,[15]; 250 g ai/ha,30
same,phytotoxicity rating DIGSA,[16]; 63 g ai/ha,0
same,phytotoxicity rating DIGSA,[16]; 250 g ai/ha,0
same,phytotoxicity rating SETVI,[17]; 63 g ai/ha,0
same,phytotoxicity rating SETVI,[17]; 250 g ai/ha,0
same,phytotoxicity rating AMARE,[18]; 63 g ai/ha,40
same,phytotoxicity rating AMARE,[18]; 250 g ai/ha,50
same,phytotoxicity rating IPOHE,[19]; 63 g ai/ha,50
same,phytotoxicity rating IPOHE,[19]; 250 g ai/ha,40
same,phytotoxicity rating SORHA,[20]; 63 g ai/ha,0
same,phytotoxicity rating SORHA,[20]; 250 g ai/ha,0
same,phytotoxicity rating ABUTH,[21]; 63 g ai/ha,100
same,phytotoxicity rating ABUTH,[21]; 250 g ai/ha,100
same,"Pre-emerge phytotoxicity rating (0-100), crop damage, RICE",[22]; 63 g ai/ha,20
same,"Pre-emerge phytotoxicity rating (0-100), crop damage, RICE",[22]; 250 g ai/ha,30
same,"Pre-emerge phytotoxicity rating (0-100), crop damage, CORN",[23]; 63 g ai/ha,0
same,"Pre-emerge phytotoxicity rating (0-100), crop damage, CORN",[23]; 250 g ai/ha,10
same,"Pre-emerge Herbicidal Activity, phytotoxicity rating (0-100), AMARE",[24]; 63 g ai/ha,90
same,"Pre-emerge Herbicidal Activity, phytotoxicity rating (0-100), AMARE",[24]; 250 g ai/ha,100
